Tests used:
Assay type in all cases: cell-based
[1] = test system: tyrosine aminotransferase (TAT) mRNA expression in human hepatocytes; assay: Tyrosine Aminotransferase (TAT) mRNA Expression In Vitro Assay in human primary hepatocytes; settings: 18 hr, fold change vs DMSO control
Procedure: Tyrosine Aminotransferase (“TAT”) mRNA Expression In Vitro Assay
The impact of test compounds on hyperglycemic events were assessed by looking at changes in mRNA expression of the gene encoding tyrosine aminotransferase (TAT), which is under direct regulation of the glucocorticoid receptor in human hepatocytes.
Human cryopreserved primary hepatocytes (BioreclamationIVT, M00995-P lot EPB) were plated to 24-well collagen I-coated plates (Becton Dickinson, 354408). Cells were allowed to attach for 4 hr before being challenged with test compounds overnight (18 hr). Cells were harvested and total RNA isolated using RNeasy Plus Mini Kit (Qiagen, 74136) followed by cDNA synthesis using High Capacity cDNA reverse transcription kit (Applied Biosystems, 4368813). Real-time RT PCR was performed on an Applied Biosystems 7500 PCR cycler, using Taqman primers for TAT (Life technologies, Hs00356930_m1) and the reference gene hypoxanthine phosphoribosyltransferase 1 (Life technologies, Hs99999909_m1).
Human cryopreserved primary hepatocytes were transferred in to pre-warmed (37° C.) plating medium (BioreclamationIVT, Z990003) and diluted to 0.7×10^6 viable cells/mL. 500 µL of the cell suspension was plated to each well of a collagen I coated 24-well plate and cells were allowed to sediment and attach at 37° C. for 4 hr. After incubation, the media was gently discarded and exchanged for insulin, glucose, glutamine, pyruvate free media (BioreclamationIVT, S00304), containing compounds of interest, prednisolone at 1 μM, dissolved in DMSO (final DMSO concentration 0.01%), or DMSO alone as control. The plates were then incubated at 37° C. for an additional 18 hr. Media was discarded, and total RNA isolation (Qiagen) and cDNA synthesis (Applied Biosystems) performed according to the manufactures protocol. Real-time RT PCR was carried out using TaqMan reagents (Life technologies) on the 7500 PCR cycler, and Ct-values for TAT gene expression was normalised to the control gene and expressed as fold change compared to DMSO control using the 2^−ΔΔCt method.

[2] = target: T1, human glucocorticoid receptor (GR) (Homo sapiens (Human), UniProt P04150); assay: GRE Agonist Assay (ChagoK1 18:7:2 s4/GRE MMTV-GRE-LacZ reporter cell line); settings: for Emax at 1 µM: ChaGo-K-1, relative to full agonist effect of dexamethasone, read-out: TA agonist Observed max Effect at 1 μM (%); for TA agonist pEC50: transactivation in agonist mode, ChagoK1 GRE-LacZ reporter cells, 24 hours
Excerpt: GRE Agonist Assay A reporter cell line (ChagoK1 18:7:2 s4/GRE) was established by stable transfection of the human bronchogenic carcinoma cell line, ChaGo K1 (ATCC: HTB 168) with a MMTV-GRE-LacZ reporter construct. The generated cell line allows for identification of compounds showing agonist activity at the human glucocorticoid receptor (GR) via induction of LacZ gene expression. Ligand-activated GR binds to the Glucocorticoid Response Element (GRE) in the promoter of the LacZ gene and transcription is initiated. The resulting beta-galactosidase activity is measured through a colour reaction (change in absorbance). Cryo-preserved ChagoK1 18:7:2 s4/GRE cells were suspended in RPMI medium with 10% FBS, 1% NEAA and 1% sodium pyruvate, and seeded as 50000 cells/200 ul/well in 96-well plates and cultured at 37° C. with 5% CO2 and 95% humidity for 24 hours. 1 μl compound was added at different concentrations to the cells and incubated for another 24 hours. […] The reaction was then terminated by addition of 100 μl stop solution (300 mM glycine, 15 mM EDTA, pH 11.3, adjusted with NaOH). […]) Where A=min Y, B=max Y, C=log EC50 and D=Slope factor

[3] = target: T1, human glucocorticoid receptor (GR); assay: GRE Antagonist Assay (ChagoK1 18:7:2 s4/GRE reporter cells pre-stimulated with dexamethasone); settings: for Emax at 1 µM: ChaGo-K-1, relative to full antagonist effect of Mifepristone (RU486), read-out: TA antagonist Observed max Effect at 1 μM (%); for TA antagonist pIC50: transactivation in antagonist mode, pre-stimulated with dexamethasone 70 nM
Excerpt: GRE Antagonist Assay A reporter cell line (ChagoK1 18:7:2 s4/GRE) was established by stable transfection of the human bronchogenic carcinoma celline, ChaGo K1 (ATCC: HTB 168) with a MMTV-GRE-LacZ reporter construct. The generated cell line allows for identification of compounds showing antagonist activity at the human glucocorticoid receptor (GR) via reduction of LacZ gene expression. Dexamethasone-activated GR binds to the Glucocorticoid Response Element (GRE) in the promoter of the LacZ gene and transcription is initiated. Antagonistic properties of compounds are assessed as beta-galactosidase intensity reduction from pre-stimulation with dexamethasone through a colour reaction (change in absorbance). Cryo-preserved ChagoK1 18:7:2 s4/GRE cells were suspended in RPMI medium with 10% FBS, 1% NEAA and 1% sodium pyruvate, and seeded as 50000 cells/200 ul/well in 96-well plates and cultured at 37° C. with 5% CO2 and 95% humidity for 24 hr. […] The reaction was then terminated by addition of 100 μl stop solution (300 mM glycine, 15 mM EDTA, pH 11.3, adjusted with NaOH). The plates were measured at 420 nm for absorbance in a SpectraMax reader (Molecular Device). […]) Where A=min Y, B=max Y, C=log IC50 and D=Slope factor

[4] = test system: release of TNFα from whole blood stimulated with LPS; assay: In Vitro Human Whole Blood: inhibition of TNFα release from whole blood stimulated with LPS; settings: LPS 30 μg/mL, 18 hr, read-out: TNFα pIC50 (converted)
Procedure: In Vitro Human Whole Blood
Venous blood from human donors was collected and anti-coagulated with sodium heparin and transferred to a sterile polystyrene round bottomed plate (Corning) at 190 μL per well.
Control wells received 1 μL DMSO only and the final DMSO concentration in all wells was 0.5%.
10 μL was added to each well to give a final LPS concentration of 30 μg/mL. Unstimulated controls received PBS only at 10 μL/well. The samples were, again, gently mixed, and the plates incubated overnight for 18 hr. Following incubation, the blood was centrifuged at 700×g for 5 min, and the plasma removed and transferred to freeze at −20° C. before assay for TNFα release.
TNFα protein levels were determined using an AlphaLISA hTNFa kit (Perkin Elmer) according to the manufacturer's instructions. Briefly, the samples were allowed to return to room temperature and centrifuged at 1500×g for 5 min. Samples were diluted 1/5 (5 μL sample in 20 μL AlphaLISA buffer). At the same time, a standard curve of TNFα was prepared by serial 1/3 dilutions from a stock solution (5000-2 pg/mL). 5 μL sample/standard curve were transferred to a 384-well Optiplate™, and to this was added 20 μL anti-humanTNFa acceptor beads/biotinylated antibody mix. The plate was incubated at room temperature for 60 min. After this incubation, 25 μL streptavidin donor beads were added, and the plate was incubated for a further 60 min in the dark at room temperature. […] TNFα in the samples was determined by extrapolation from the standard curve and expressed as pg/mL.
Percent inhibition was plotted against concentration, and a curve graphed using a 4-parameter curve fit (Xlfit 4.1) to determine the pIC50.

T1 sequence (P04150 whole entry): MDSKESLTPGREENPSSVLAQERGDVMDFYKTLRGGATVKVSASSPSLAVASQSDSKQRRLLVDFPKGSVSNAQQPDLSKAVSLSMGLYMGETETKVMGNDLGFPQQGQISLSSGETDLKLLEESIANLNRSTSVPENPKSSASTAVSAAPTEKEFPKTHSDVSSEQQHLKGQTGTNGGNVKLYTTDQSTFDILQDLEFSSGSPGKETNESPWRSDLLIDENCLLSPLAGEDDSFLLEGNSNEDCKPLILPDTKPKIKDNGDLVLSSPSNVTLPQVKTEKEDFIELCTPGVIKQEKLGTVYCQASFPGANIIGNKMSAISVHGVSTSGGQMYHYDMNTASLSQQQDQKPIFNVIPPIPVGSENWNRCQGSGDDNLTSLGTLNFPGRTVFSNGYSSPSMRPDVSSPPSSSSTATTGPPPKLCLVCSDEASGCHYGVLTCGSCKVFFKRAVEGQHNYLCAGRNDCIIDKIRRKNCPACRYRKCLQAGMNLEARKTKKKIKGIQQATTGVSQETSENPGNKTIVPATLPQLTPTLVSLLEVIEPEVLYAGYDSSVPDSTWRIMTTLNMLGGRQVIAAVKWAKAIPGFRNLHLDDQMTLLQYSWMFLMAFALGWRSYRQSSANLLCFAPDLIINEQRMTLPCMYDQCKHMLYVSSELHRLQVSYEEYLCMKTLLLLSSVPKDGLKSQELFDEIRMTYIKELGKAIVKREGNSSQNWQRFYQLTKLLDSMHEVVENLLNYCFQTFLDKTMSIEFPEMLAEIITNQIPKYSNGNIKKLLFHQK

`CC(C)[C@H](NC(=O)C(F)(F)F)[C@H](Oc1ccc2c(cnn2-c2ccc(=O)n(C)c2)c1)c1cccc(Cl)c1` [Example 6, N-[(1R,2S)-1-(3-chlorophenyl)-3-methyl-1-{[1-(1-methyl-6-oxo-1,6-dihydropyridin-3-yl)-1H-indazol-5-yl]oxy}butan-2-yl]-2,2,2-trifluoroacetamide] was tested. Which “Fold Change Tyrosine Aminotransferase Gene Expression Relative to Control (1 μM)” value [1] did it give?
The value was 0.9 (n = 1).

And the Emax at 1 µM [2]?
The Emax at 1 µM was 24%.

And the “TA agonist pEC50” value [2]?
The value was 8.6.

What about the Emax at 1 µM [3] of the same compound?
Its Emax at 1 µM is 67%.

What about the “TA antagonist pIC50” value [3] of the same compound?
The value was 7.3.

What about the IC50 [4] of the same compound?
Its IC50 is 0.398 µM.

What does the source list for `CC(C)[C@H](NC(=O)C(C)(F)F)[C@H](Oc1ccc2c(cnn2-c2ccc(=O)n(C)c2)c1)c1ccccc1` [Example 1, 2,2-difluoro-N-[(1R,2S)-3-methyl-1-{[1-(1-methyl-6-oxo-1,6-dihydropyridin-3-yl)-1H-indazol-5-yl]oxy}-1-phenylbutan-2-yl]propanamide]?
Fold Change Tyrosine Aminotransferase Gene Expression Relative to Control (1 μM) [1]: 1.0 (0.8-1.4, n = 8); Emax at 1 µM [2]: 36%; TA agonist pEC50 [2]: 8.0; Emax at 1 µM [3]: 56%; TA antagonist pIC50 [3]: 6.8; IC50 [4]: 0.631 µM

What does the source list for `C[C@]12C=CC(=O)C=C1CC[C@@H]1[C@@H]2[C@@H](O)C[C@@]2(C)[C@H]1CC[C@]2(O)C(=O)CO` [Prednisolone, prednisolone, reference compound]?
Fold Change Tyrosine Aminotransferase Gene Expression Relative to Control (1 μM) [1]: 2.8 (1.3-5.3, n = 10); IC50 [4]: 0.251 µM

For `CC(C)[C@H](NC(=O)C(C)(F)F)[C@H](Oc1ccc2c(cnn2-c2ccc(=O)n(C)c2)c1)c1cc(F)cc(F)c1` [Example 3, N-[(1R,2S)-1-(3,5-difluorophenyl)-3-methyl-1-{[1-(1-methyl-6-oxo-1,6-dihydropyridin-3-yl)-1H-indazol-5-yl]oxy}butan-2-yl]-2,2-difluoropropanamide], which “Fold Change Tyrosine Aminotransferase Gene Expression Relative to Control (1 μM)” value [1] is on record?
Its value is 1.5 (1.4-1.55, n = 2).

And the Emax at 1 µM [2]?
The Emax at 1 µM was 44%.

And the “TA agonist pEC50” value [2]?
The value was 8.6.

And the Emax at 1 µM [3]?
Its Emax at 1 µM is 53%.

What about the “TA antagonist pIC50” value [3] of the same compound?
Its value is 7.6.

And the IC50 [4]?
Its IC50 is 0.1 µM.

From patent publication US10196374B2 (AstraZeneca AB, priority 2014, dated 2019)
